This is an account of results in article PMC6788984, “High-potency ligands for DREADD imaging and activation in rodents and monkeys” (Nature Communications, 2019).

Where “and” joins values, the source holds several entries; their conditions need not be identical. Equal values may be shown once. Entries after “also recorded” stand apart in the source; their conditions may differ.

The subject of assay [1] is mu, kappa, and delta opioid receptors. Briefly: Binding and enzyme target profile screen (Eurofins). Conditions: competitive binding screen, 10 uM. The procedure: These experiments were performed by an outside vendor (Eurofins, France). […] In each experiment, the respective reference compound was tested concurrently with the test compound to assess the assay reliability. […] Following incubation, the samples were filtered rapidly under vacuum through glass fiber filters presoaked in a buffer and rinsed several times with an ice-cold buffer using a 48-sample or 96-sample cell harvester. The filters were counted for radioactivity in a scintillation counter using a scintillation cocktail.

The target in assay [2] is T1, hM4Di (Homo sapiens, UniProt P08173, A203G/Y113C).
T1 sequence (P08173 1-479 Y113C/A203G): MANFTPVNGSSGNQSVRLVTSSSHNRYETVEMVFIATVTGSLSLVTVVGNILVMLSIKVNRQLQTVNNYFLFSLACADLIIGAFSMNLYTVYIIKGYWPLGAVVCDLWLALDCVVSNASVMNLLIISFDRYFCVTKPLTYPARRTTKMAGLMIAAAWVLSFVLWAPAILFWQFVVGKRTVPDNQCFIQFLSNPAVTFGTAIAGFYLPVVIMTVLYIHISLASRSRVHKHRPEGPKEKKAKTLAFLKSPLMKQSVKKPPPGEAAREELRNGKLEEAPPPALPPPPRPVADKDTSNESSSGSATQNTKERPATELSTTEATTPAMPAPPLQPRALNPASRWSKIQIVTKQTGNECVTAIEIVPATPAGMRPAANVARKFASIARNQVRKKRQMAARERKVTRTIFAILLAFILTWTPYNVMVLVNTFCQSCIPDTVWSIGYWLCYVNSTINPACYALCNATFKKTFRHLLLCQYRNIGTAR
Nature of the assay: [11C]clozapine PET DREADD occupancy in AAV-DREADD mice, hM4Di. The settings on record: 0.1 mg kg-1 IP, individual values, listed as J52.
Description: (§2) Animals were anesthetized with isoflurane or a mix of ketamine/xylazine and prepped on a stereotaxic apparatus (Kopf, Germany). […] When indicated, animals were pretreated with vehicle or the indicated drug 10 min before the injection of the PET radiotracer. Total acquisition time was 60 min.
In all cases, the PET data were reconstructed and corrected for dead-time and radioactive decay. All qualitative and quantitative assessments of PET images were performed using the PMOD software environment (PMOD Technologies, Zurich Switzerland). Binding potential BPND (a relative measure of specific binding) was calculated using a reference tissue model using the cerebellum as a reference tissue in rodents. In macaques, the kinetic data were fitted to a two-tissue compartment model and the concentration of parent in plasma was used as an input function, then the volume of distribution ratios compared to cerebellum were calculated to establish BPND. In all cases, the dynamic PET images were coregistered to MRI templates and time-activity curves were generated using predefined volumes of interest (macaques) or manually drawn in rodents and the described analyses were performed. Receptor occupancy was calculated using the formula: occupancy = (BPND^0 − BPND^Drug)/BPND^0 × 100, where BPND^0 is the binding potential of the baseline condition and BPND^Drug the binding potential when the animals were pretreated with the drug.

A further assay deals with WT littermates. Nature of the assay: Locomotor activity in WT littermate rats. The assay is classed as in vivo, rat. On the procedure: Tyrosine hydroxylase (TH):Cre rats (n = 9; founder, K. Deisseroth lab) or WT littermates (n = 9) were bilaterally injected with AAV2 hSyn-DIO-hM3Dq-mCherry (1ul/hemisphere, Addgene), and allowed to recover for 2 + weeks. Following handling, they were habituated to a Med Associates locomotor testing box (43 × 43 × 30.5 cm) for 2 h on 2 days, then repeatedly tested after separate day doses of DREADD agonists and vehicle. […]. Vehicle was administered on 2 separate days, and average locomotion was used for comparison with DREADD agonists. Cohort 2 underwent the same procedures, but with a 4 h testing session, and the following IP injections: vehicle (x2), JHU37152 (0.01–0.3 mg kg^−1), JHU37160 (0.01–0.3 mg kg^−1). All drugs were dissolved in 5% DMSO in saline, and injected 1 ml kg^−1. Following all tests, rats were transcardially perfused, brains sectioned coronally at 40 µm, and VTA-specific expression confirmed using endogenous mCherry reporter expression, which co-localized nearly exclusively with TH immunoreactivity.

Another assay has as its target T2, cortical hM4Di (Homo sapiens, UniProt P08173, A203G/Y113C).
T2 sequence (P08173 1-479 Y113C/A203G): T1 sequence (P08173 1-479 Y113C/A203G)
Briefly: [11C]clozapine PET DREADD occupancy in rats. The settings on record: rat, read-out: occupancy of cortical hM4Di.

A further assay concerns the target hM3Dq (Homo sapiens, UniProt P20309, A239G/Y149C). Briefly: DREADD-assisted metabolic mapping (DREAMM), [18F]FDG PET in D1-hM3Dq mice. The settings on record: 0.1 mg kg-1 IP. The class given is in vivo, mouse. Set-up: 026220; host or cells: mouse brain, dopamine D1 receptor-expressing neurons (transgene). On the procedure: (§1) Mice (D1-hM3Dq, D1-hM4Di or WT littermates, see above) were habituated to experimenter handling and fasted 16 h before the experiment. On the day of the experiment, mice received an IP injection of vehicle (1 ml kg^−1) and were placed back into their home cages. Ten minutes later, mice were injected (IP) with 11 MBq of 2-deoxy-2-[^18F]fluoro-D-glucose (FDG, Cardinal Health) and placed back into their home cages. After 30 min, mice were anesthetized with 1.5% isoflurane, placed on a custom-made bed of a nanoScan small animal PET/CT scanner (Mediso Medical Imaging Systems) and scanned for 20 min on a static acquisition protocol, followed by a CT scan. […] Voxel-based repeated measures with Student’s t test comparing baseline to drug were performed, and the resulting parametric images were filtered for statistically significant (p < 0.05) clusters larger than 100 contiguous voxels. All statistical parametric mapping analyses were performed using Matlab R2016 (Mathworks) and SPM12 (University College London).

Assay [3] has as its target T1, hM4Di. Briefly: DREADD-assisted metabolic mapping (DREAMM), [18F]FDG PET in D1-hM4Di mice. The assay is classed as in vivo, mouse. Set-up: 026219; host or cells: mouse brain, dopamine D1 receptor-expressing neurons (transgene). The settings on record: 0.1 mg kg-1 IP. On the procedure:
as §1

Chain of hM3Dq (P20309 whole entry Y149C/A239G): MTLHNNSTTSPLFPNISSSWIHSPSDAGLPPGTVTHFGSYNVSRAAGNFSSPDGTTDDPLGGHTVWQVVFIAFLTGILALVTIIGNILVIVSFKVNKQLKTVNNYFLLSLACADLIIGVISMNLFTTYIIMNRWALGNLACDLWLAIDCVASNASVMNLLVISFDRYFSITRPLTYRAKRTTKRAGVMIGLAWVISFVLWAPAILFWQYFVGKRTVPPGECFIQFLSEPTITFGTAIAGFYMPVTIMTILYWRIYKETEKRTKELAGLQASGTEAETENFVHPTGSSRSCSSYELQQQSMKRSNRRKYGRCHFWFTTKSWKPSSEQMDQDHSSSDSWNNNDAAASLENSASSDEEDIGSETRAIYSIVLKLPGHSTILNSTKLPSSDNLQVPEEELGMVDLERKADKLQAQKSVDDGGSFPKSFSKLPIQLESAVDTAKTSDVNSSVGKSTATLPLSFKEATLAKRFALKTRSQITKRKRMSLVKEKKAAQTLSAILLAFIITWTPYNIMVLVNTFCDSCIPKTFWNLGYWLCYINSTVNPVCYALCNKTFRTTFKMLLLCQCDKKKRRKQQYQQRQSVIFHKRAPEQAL
Description for cortical hM4Di: as §2
In all cases, the PET data were reconstructed and corrected for dead-time and radioactive decay. All qualitative and quantitative assessments of PET images were performed using the PMOD software environment (PMOD Technologies, Zurich Switzerland). Binding potential BPND (a relative measure of specific binding) was calculated using a reference tissue model using the cerebellum as a reference tissue in rodents. In macaques, the kinetic data were fitted to a two-tissue compartment model and the concentration of parent in plasma was used as an input function, then the volume of distribution ratios compared to cerebellum were calculated to establish BPND. […] Receptor occupancy was calculated using the formula: occupancy = (BPND^0 − BPND^Drug)/BPND^0 × 100, where BPND^0 is the binding potential of the baseline condition and BPND^Drug the binding potential when the animals were pretreated with the drug.

For the compound `c1ccc2c(c1)N=C(N1CCNCC1)c1ccccc1N2` [C21], the “binding to opioid receptors” value in assay [1] is “exhibited binding to mu, kappa, and delta opioid receptors; also recorded: binds to opioid receptors”.

As for `CCN1CCN(C2=Nc3cc(Cl)ccc3Nc3cccc(F)c32)CC1` [JHU37152, 8-Chloro-11-(4-ethylpiperazin-1-yl)-1-fluoro-5H-dibenzo[b,e][1,4]diazepine], on hM4Di [2], the “displacement of in vivo [11C]clozapine binding, hM4Di” value is -5.675 and 34.4851 and 23.8214.

In the case of `CCN1CCN(C2=Nc3cc(Cl)ccc3Nc3c(F)cccc32)CC1` [JHU37160, 8-Chloro-11-(4-ethylpiperazin-1-yl)-4-fluoro-5H-dibenzo[b,e][1,4]diazepine], the “Locomotor activity, individual animals (Figure 3 Panel F)” value was 108.174 and 103.461 and 68.1848 and 77.4203 and 88.3922 and 59.3537 and 61.4668 in the assay on WT littermates (dose 0.01, listed as J60); 208.38 and 83.765 and 47.1951 and 156.41 and 190.369 and 42.7803 and 81.1685 with WT littermates (dose 0.1, listed as J60). The receptor occupancy at 0.1 mg/kg at cortical hM4Di was about 80%. Moreover, the entries for the “brain metabolism ([18F]FDG)” value at hM3Dq and at hM4Di [3] were “decreased metabolism” and “increased metabolism”, respectively.
